Measurements as given in patent publication US20240400560A1, “BICYCLIC HETEROCYCLIC DERIVATIVE HAVING VIRAL GROWTH INHIBITORY ACTIVITY AND PHARMACEUTICAL COMPOSITION CONTAINING SAME” (Shionogi & Co., Ltd., priority 2021, published 2024).

Key:
SARS-CoV-2 3CL protease = SARS-CoV-2 3CL protease (Severe acute respiratory syndrome coronavirus 2, UniProt P0DTD1); experiment: Inhibitory activity test against SARS-CoV-2 3CL proteases; format: biochemical; details: read-out: IC50 (50% SARS-CoV-2 3CL protease inhibitory concentration)
SARS-CoV-2 = experiment: Inhibitory activity of cytopathic effect (CPE) in Vero E6/TMPRSS2 cells; format: cell-based
[1] = Severe acute respiratory syndrome coronavirus 2, VeroE6/TMPRSS2, 72 h, 50% SARS-CoV-2 infected cell death inhibitory concentration, CellTiter-Glo 2.0 after 3 days culture
[2] = Severe acute respiratory syndrome coronavirus 2, VeroE6/TMPRSS2, 50% SARS-CoV-2 infected cell death inhibitory concentration, class symbols

| SMILES | IC50 (SARS-CoV-2 3CL protease) | EC50 (SARS-CoV-2; [1]) | EC50 (SARS-CoV-2; [2]) |
| --- | --- | --- | --- |
| COc1cc(-c2cc3c(cc2Cl)NC(=O)C3)cc2c1c(=O)n(Cc1ncn(C)n1)c(=O)n2Cc1cc(F)c(F)c(F)c1 [Compound I-0139] | 0.0045 µM | 3.62 µM | – |
| COc1cc(-c2cc3c(cc2Cl)NC(=O)C3)cc2c1c(=O)n(-c1cncc(Cl)c1)c(=O)n2Cc1cc(F)c(F)c(F)c1 [Compound I-0065] | < 0.1 µM | – | < 1 µM |
| COc1cc(-c2cc(C#N)ccc2Cl)cc2c1c(=O)n(-c1cncc(C)c1)c(=O)n2Cc1cc(C#N)ccc1Cl [Compound I-0168] | < 0.1 µM | – | < 1 µM |
| CC(=O)c1ccc(Cl)c(-c2ccc3c(=O)n(Cc4ccc[nH]c4=O)c(=O)n(Cc4cc(F)c(F)c(F)c4)c3c2)c1 [Compound I-0284] | < 0.1 µM | – | 1 to 10 µM |
| COc1cc(-c2cc(C#N)ccc2Cl)cc2c1c(=O)n(-c1cncc(C)c1)c(=O)n2Cc1cc(C#N)c(F)cc1C [Compound I-0164] | 0.0012 µM | 0.08 µM | – |
| COc1cc(-c2cc(CO)ccc2Cl)cc2c1c(=O)n(Cc1ncn(C)n1)c(=O)n2Cc1cc(F)c(F)c(F)c1 [Compound I-0036] | < 0.1 µM | – | 1 to 10 µM |
| O=c1[nH]cccc1Cn1c(=O)c2ccc3ccccc3c2n(Cc2cc(F)c(F)c(F)c2)c1=O [Compound I-0315] | 0.35 µM | 0.411 µM | – |
| COc1cc(-c2cc(C(=O)N(C)C)ccc2Cl)cc2c1c(=O)n(-c1cncc(C)c1)c(=O)n2Cc1ccc(F)c(C#N)c1 [Compound I-0200] | < 0.1 µM | – | 1 to 10 µM |
| COc1cc(-c2cc(C(N)=O)ccc2Cl)cc2c1c(=O)n(-c1cncc(C)c1)c(=O)n2Cc1ccc(F)c(C#N)c1 [Compound I-0029] | 0.0078 µM | 49.8 µM | – |
| COc1cc(-c2cc3cn[nH]c3cc2Cl)cc2c1c(=O)n(Cc1ncn(C)n1)c(=O)n2Cc1cc(F)c(F)c(F)c1F [Compound I-0048] | 0.011 µM | 0.537 µM | – |
| CNC(=O)c1ccc(Cl)c(-c2ccc3c(=O)n(Cc4ccc[nH]c4=O)c(=O)n(Cc4cc(F)c(F)c(F)c4)c3c2)c1 [Compound I-0285] | < 0.1 µM | – | 1 to 10 µM |
| COc1cc(-c2cc3cn[nH]c3cc2Cl)cc2c1c(=O)n(-c1cncc(C)c1)c(=O)n2Cc1cc(F)c(F)c(C#N)c1 [Compound I-0166] | < 0.1 µM | – | < 1 µM |
| Cn1cnc(Cn2c(=O)c3c(Cl)cc(-c4cc5cn[nH]c5cc4Cl)cc3n(Cc3cc(F)c(F)c(F)c3)c2=O)n1 [Compound I-0015] | < 0.1 µM | – | < 1 µM |
| Cc1cncc(-n2c(=O)c3c(F)cc(-c4cc(C(N)=O)ccc4Cl)cc3n(Cc3ccc(F)c(C#N)c3)c2=O)c1 [Compound I-0051] | < 0.1 µM | – | 1 to 10 µM |
| COc1cc(-c2cc(-c3cnn(C)c3)ccc2Cl)cc2c1c(=O)n(-c1cncc(C)c1)c(=O)n2Cc1ccc(F)c(C#N)c1 [Compound I-0074] | 0.012 µM | 1.83 µM | – |
| Cc1cncc(-n2c(=O)c3c(Cl)cc(-c4cc5cn[nH]c5cc4Cl)cc3n(Cc3ccc(F)c(C#N)c3)c2=O)c1 [Compound I-0011] | < 0.1 µM | – | < 1 µM |
| COc1cc(-c2cc(C#N)ccc2Cl)cc2c1c(=O)n(-c1cncc(Cl)c1)c(=O)n2Cc1ccc(F)c(C#N)c1 [Compound I-0033] | 0.013 µM | 0.217 µM | – |
| COc1cc(-c2cc(C#N)ccc2Cl)cc2c1c(=O)n(Cc1ncn(C)n1)c(=O)n2Cc1cc(F)c(F)c(F)c1 [Compound I-0035] | 0.025 µM | 0.363 µM | – |
| COc1cc(-c2cc3c(cc2Cl)NC(=O)C3)cc2c1c(=O)n(Cc1ncn(C)n1)c(=O)n2Cc1cc(F)c(F)c(Cl)c1 [Compound I-0263] | 0.00099 µM | 0.736 µM | – |

| SMILES | IC50 (SARS-CoV-2 3CL protease) | EC50 (SARS-CoV-2; [1]) | EC50 (SARS-CoV-2; [2]) |
| --- | --- | --- | --- |
| COc1cc(-c2cc3c(cc2Cl)NC(=O)C3)cc2c1c(=O)n(Cc1ncn(C)n1)c(=O)n2Cc1cc(F)c(F)c(F)c1F [Compound I-0047] | < 0.1 µM | – | 1 to 10 µM |
| CCOc1cc(-c2cc(C#N)ccc2Cl)cc2c1c(=O)n(-c1cncc(C)c1)c(=O)n2Cc1ccc(F)c(C#N)c1 [Compound I-0295] | 0.015 µM | 0.426 µM | – |
| COCCNC(=O)c1ccc(Cl)c(-c2cc(OC)c3c(=O)n(-c4cncc(C)c4)c(=O)n(Cc4ccc(F)c(C#N)c4)c3c2)c1 [Compound I-0195] | < 0.1 µM | – | 1 to 10 µM |
| Cn1cnc(Cn2c(=O)c3c(Cl)cc(-c4cc5c(cc4Cl)NC(=O)C5)cc3n(Cc3cc(F)c(F)c(F)c3)c2=O)n1 [Compound I-0003] | 0.0086 µM | 0.692 µM | – |
| COc1cc(-c2cc(CO)ccc2Cl)cc2c1c(=O)n(-c1cncc(C)c1)c(=O)n2Cc1ccc(F)c(C#N)c1 [Compound I-0031] | < 0.1 µM | – | < 1 µM |
| Cc1cncc(-n2c(=O)c3c(Cl)cc(-c4cc(C#N)ccc4Cl)cc3n(Cc3ccc(F)c(C#N)c3)c2=O)c1 [Compound I-0013] | < 0.1 µM | – | < 1 µM |
| Cc1cncc(-n2c(=O)c3c(Cl)cc(-c4cc5c(cc4Cl)NC(=O)C5)cc3n(Cc3ccc(F)c(C#N)c3)c2=O)c1 [Compound I-0004] | 0.0099 µM | 1.16 µM | – |
| COc1cc(-c2cc(NS(C)(=O)=O)ccc2Cl)cc2c1c(=O)n(-c1cncc(C)c1)c(=O)n2Cc1ccc(F)c(C#N)c1 [Compound I-0072] | 0.01 µM | 2.43 µM | – |
| COc1cc(-c2cc3cn[nH]c3cc2Cl)cc2c1c(=O)n(Cc1ncn(C)n1)c(=O)n2Cc1cc(F)c(F)c(Cl)c1 [Compound I-0264] | 0.0026 µM | 0.349 µM | – |
| COc1cc(-c2cc(C(=O)N3CCN(C)CC3)ccc2Cl)cc2c1c(=O)n(-c1cncc(C)c1)c(=O)n2Cc1ccc(F)c(C#N)c1 [Compound I-0208] | < 0.1 µM | – | 1 to 10 µM |
| Cc1cncc(-n2c(=O)c3c(Cl)cc(-c4cc(C(N)=O)ccc4Cl)cc3n(Cc3ccc(F)c(C#N)c3)c2=O)c1 [Compound I-0010] | < 0.1 µM | – | 1 to 10 µM |
| COc1cc(-c2cc3c(cc2Cl)NC(=O)C3)cc2c1c(=O)n(Cc1ncn(C)n1)c(=O)n2Cc1cc(F)c(F)cc1F [Compound I-0273] | < 0.1 µM | – | 1 to 10 µM |
| COc1cc(-c2cc3cn[nH]c3cc2Cl)cc2c1c(=O)n(-c1cncc(C)c1)c(=O)n2Cc1ccc(F)c(C#N)c1 [Compound I-0063] | < 0.1 µM | – | < 1 µM |
| COc1cc(-c2cc(C#N)ccc2Cl)cc2c1c(=O)n(Cc1ncn(C)n1)c(=O)n2Cc1cc(F)c(F)c(F)c1F [Compound I-0053] | 0.03 µM | 0.497 µM | – |
| COCc1ccc(Cl)c(-c2cc(OC)c3c(=O)n(-c4cncc(C)c4)c(=O)n(Cc4ccc(F)c(C#N)c4)c3c2)c1 [Compound I-0076] | 0.02 µM | 0.489 µM | – |
| COc1cc(-c2cc3c(cc2Cl)NC(=O)C3)cc2c1c(=O)n(-c1cncc(Cl)c1)c(=O)n2Cc1ccc(F)c(C#N)c1 [Compound I-0028] | 0.0075 µM | 10.1 µM | – |
| Cc1cncc(-n2c(=O)c3c(F)cc(-c4cc(CO)ccc4Cl)cc3n(Cc3cc(F)c(F)c(F)c3)c2=O)c1 [Compound I-0052] | < 0.1 µM | – | < 1 µM |
| COc1cc(-c2cc3c(cc2Cl)NC(=O)C3)cc2c1c(=O)n(-c1cncc(C)c1)c(=O)n2Cc1cc(C#N)ccc1Cl [Compound I-0167] | 0.0019 µM | 0.528 µM | – |
| Cn1cnc(Cn2c(=O)c3c(F)cc(-c4cc5c(cc4Cl)NC(=O)C5)cc3n(Cc3cc(F)c(F)cc3F)c2=O)n1 [Compound I-0280] | < 0.1 µM | – | 1 to 10 µM |
